Experimental data reported in patent US6080780A, “Use of nitroflavonoids for the treatment of anxiety” (University of Strathclyde, priority 1995, dated 2000).
Like-named read-outs stand apart in the source and are kept apart here.

Experiments:
[1] = target: benzodiazepine (BDZ-R) receptor; assay: 3H-Flunitrazepam binding to extensively washed bovine cerebral cortical membranes; details: read-out: Ki, inhibition of 3H-FNZ binding; bovine cerebral cortical membranes; 0.6 nM 3H-FNZ, 4° C., 60 min; n=3
Protocol: Non-specific nitration of the flavone nucleus yielded the two nitrated flavone (II) and (IIa). […] Briefly, ^3 H-FNZ binding was carried out as described by Levy de Stein, M., Medina, J. H., De Robertis E., Mol. Brain Res. 1985, 5, 9-15. In brief, for each assay, triplicate samples of the membranes, containing 0.2 to 0.4 mg protein were suspended in a final volume of 1 mL of 0.25 mM Tris-HCl buffer, pH 7.3. The incubation was carried out at 4° C. for 60 minutes with 0.6 nM ^3 -FNZ. To study the binding saturation, a range of 0.3 to 10 nM ^3 H-FNZ was used. Non-specific binding was determined in parallel incubations in the presence of 3 μM FNZ, and represented 5-15% of total. The assays were terminated by filtration under vacuum though Whatman GF/A glass-fiber filters, and three washes with 3 mL each of incubation medium. Filters were dried and counted after the addition of 5 mL of 2,5-diphenyloxazole/xylene as scintillation fluid. Bovine cerebral cortical membranes were treated substantially following the method of Medina, J. H., De Robertis, E. J., J. Neurochem. 1985, 44, 1340-1345.

[2] = target: central benzodiazepine receptors (BDZ-Rs); assay: 3H-FNZ binding to rat brain synaptosomal membranes (Section 3)
Protocol: In brief, for each assay, triplicate samples of the membranes, containing 0.2 to 0.4 mg protein were suspended in a final volume of 1 mL of 0.25 mM Tris--HCl buffer, pH 7.3. The incubation was carried out at 4° C. for 60 min with 0.6 nM ^3 H--FNZ. to study the binding saturation, a range of 0.3 to 10 nM ^3 H--FNZ was used. […] The assays were terminated by filtration under vacuum through Whatman GF/A glass-fiber filters, and three washes with 3 mL each of incubation medium. Filters were dried and counted after the addition of 5 mL of 2,5-diphenyloxazole/xylene as scintillation fluid.
The binding of ^3 H--FNZ was carried out as for (i) above.

[3] = target: central benzodiazepine receptor; assay: [3H]-FNZ binding to crude synaptosomal membranes from rat CNS regions; parameters: species or system rat (Wistar)
Protocol: (§1) Adult male Wistar rats weighing 250 g were used for biochemical experiments. Adult male Swiss male weighing 25-30 g were used for pharmacological assays except for inhibitory avoidance and tail flick tests were done in rats. Animals were housed in a controlled environment, with free access to food and water and maintained on a 12 h/12 h day/night cycle.
Displacement curves were performed using [^3 ]-FNZ or [^3 H]-zolpidem ([^3 H]-ZOLP) as radioligands in washed crude synaptosomal membranes from rat cerebral cortex, cerebellum, hippocampus, striatum or spinal cord. Membrane preparations were carried out according to Medina et al. (1990). Briefly, brains were rapidly dissected out on ice and the different structures were homogenized in 10 volumes of 0.32 M sucrose and centrifuged at 900×g for 10 min. The resulting supernatant was centrifuged at 100,000×g for 30 min and the pellet washed twice in 25 mM Tris HCl buffer pH 7.4 at 100,000×g for 30 min, and stored at -20° C. until used.
For [^3 H]-FNZ (84 Ci/mmol, NEN) displacement curves, different concentrations of DNF (0.3 nM to 1 μM) were added to 0.3 mg membrane protein suspended in 1 ml of 25 mM Tris HCl buffer in presence of 0.6 nM of the radioligand. Protein determination was carried out by using the method of Lowry et al. (1951). Nonspecific binding (<5%) was determined in parallel incubations with 10 μM FNZ (Hoffmann-La Roche). The incubation was carried out at 4° C. for 2 h. The assays were determined by filtration under vacuum through Whatman GF/A glass fiber filters, and two washes with 3 ml each of incubation medium. Filters were dried and counted after the addition of 5 ml 2,5-diphenyl-oxazole (PPO)-xylene as scintillation fluid.

AMPA-glutamate receptors = assay: 3H-AMPA binding, compound (IV); details: 10 μM
GABAA receptors = assay: 3H-muscimol binding, compound (IV); details: 10 μM
serotonin 1A receptors = assay: 3H-8-OH-DPAT binding, compound (IV); details: 10 μM
[4] = system: cholinergic-muscarinic receptors; assay type: binding; details: 10 μM
mice [5] = assay: Elevated plus-maze, compound (IV); assay type: in vivo, male Swiss mice; details: i.p., 0.1 mg/kg, preliminary
Protocol: The animals used in the pharmacological test were male Swiss mice from our breeding stock, weighting 28-35 g. They were placed in groups of ten with free access to water and food, and maintained on 12 h/12 h day/night cycle. The elevated plus-maze set-up consisted of a maze of two open arms, 25×5 cm, crossed by two closed arms of the same dimensions, with free access to all arms from the crossing point. The closed arms had walls 35 cm high all around. The maze was suspended 50 cm from the room floor. Mice were placed on the central part of the cross facing an open arm. The number of entries and the time spend going into open and closed arms were counted during 5 min. A selective increase in the parameters corresponding to open arms revels an anxiolytic effect. The total exploratory activity (number of entries in both arms) was also determined according to the method of Pellow, S. J. et al. Neurosci. Meth. 1986, 14, 149; Lister, R. G. Psychopharmacology 1987, 92, 180).

mice [6] = assay: Pentylenetetrazole (PTZ)-induced seizures; assay type: in vivo
Protocol: The effects of DNF on pentylenetetrazole (PTZ)--induced convulsions were evaluated according to Medina et al., (1990) with slight modifications. PTZ (200 mg/kg) was administered i.p. to mice 15 min after injection of drug or vehicle. The number of mice presenting clonic convulsions was determined.
Data are expressed as the percentage of mice presenting clonic or tonic-clonic seizures. ^3 number of animals per group.

mice [7] = assay: Holeboard test in mice; assay type: in vivo, male Swiss mice; details: mice, 1 mg/kg; vehicle=8.5±1.2, p<0.001
Protocol: as §1
The test was performed according to Viola et al. (1994) and Wolfman et al. (1994). The number of head dips and the time spent head dipping were counted during 5 min.

mice [8] = assay: Elevated plus-maze test in mice (Section 1, incl. Table 1); assay type: in vivo, male Swiss mice; details: Mus musculus, ip, read-out: minimum dose necessary to produce similar anxiolytic effects
Protocol: Performance of mice on the elevated plus-maze test was used to measure anxiolytic actions in rodents, following i.p. administration of vehicle or compound (II).
The animals used in the pharmacological test were male Swiss mice from breeding stock, weighing 28-35 g. They were placed n groups of ten with free access to water and food, and maintained on 12 h/12 h day/night cycle. In all the tests the mice were i.p. injected with VEH or a solution of the drug, 15 minutes before the assay.
The elevated plus-maze set-up consisted of a maze of two open arms, 25×5 cm, crossed by two closed arms of the same dimensions, with free access to all arms from the crossing point. The closed arms had walls 35 cm high all around. The maze was suspended 50 cm from the room floor. Mice were placed on the central part of the cross facing an open arm. The number of entries and the time spent going into open and closed arms were counted during 5 minutes. […] The total exploratory activity (number of entries in both arms) was also determined.

mice [9] = assay: Horizontal wire test in mice; assay type: in vivo, male Swiss mice; details: mice, i.p.
Protocol: as §1
This test was carried out as previously described (Viola et al., 1994; Wolfman et al., 1994; Viola et al., 1995). The test took place after two trials, performed at 5 min intervals. A myorelaxant drug will impair mice to grasp the wire (Bonetti et al., 1982). The effect of DNF )1 mg/kg) on DZ-induced myorelaxation was also determined.

mice [10] = assay: Elevated plus maze test in mice (Section 2); assay type: in vivo, male Swiss mice; details: mice
Protocol: as §1
An Opto-varimex® apparatus was used according to Viola et al. (1994). The apparatus discriminates between total and ambulatory activities. An increase in the number of transitions through the beams reflects augmented locomotor activity. In this and all following tests in mice, animals were i.p. injected with the vehicle, or with DNF 20 min before the beginning of the tests. In each session, control mice were tested in parallel with those animals receiving drug treatment.
The test was performed in the same session immediately after the locomotor activity measurement (Viola et al., 1994; Wolfman et al., 1994). […] A series of experiments with the injection of the selective central benzodiazepine receptor antagonist Ro 15-1788 (File and Pellow, 1986) was also carried out.

[11] = rat cerebral cortex, read-out: Ki, 3H-FNZ binding

Structure (SMILES): O=c1cc(-c2ccc([N+](=O)[O-])cc2)oc2ccc([N+](=O)[O-])cc12 [(IIa), 6,4'-Dinitroflavone]
- Ki [1]: 17000 ± 5000 nM

Structure (SMILES): O=c1cc(-c2cccc([N+](=O)[O-])c2)oc2ccc(F)cc12 [(IX), 6-Fluoro-3'-nitroflavone]
- Ki [2, 11]: 170 nM

Structure (SMILES): O=c1cc(-c2cccc([N+](=O)[O-])c2)oc2ccccc12 [(VI), 3'-nitroflavone]
- Ki [2, 11]: 250 nM

Structure (SMILES): O=c1cc(-c2cccc([N+](=O)[O-])c2)oc2ccc(Cl)cc12 [(VIII), 6-Chloro-3'-nitroflavone]
- Ki [2, 11]: 8 nM

Structure (SMILES): Cc1nnc2ccc(-c3cccc(C(F)(F)F)c3)nn12 [CL 218,872, reference compound]
- Ki ([3]; cortical membranes, high affinity site, read-out: high affinity Ki value): 10 nM
- Ki ([3]; cortical membranes, low affinity site, read-out: low affinity Ki value): 1200 nM

Structure (SMILES): O=c1cc(-c2ccccc2[N+](=O)[O-])oc2ccc(Br)cc12 [Compound (III), 6-bromo-2'-nitroflavone]
- Ki [2, 11]: 208 nM

Structure (SMILES): O=c1cc(-c2cccc([N+](=O)[O-])c2)oc2ccc(Br)cc12 [Compound (IV), 6-bromo-3'-nitroflavone]
- Ki ([2]; cerebellum, n=4, read-out: Ki SEM, 3H-FNZ binding): 3.6 ± 0.1 nM
- Ki ([2]; cerebral cortex, first (high affinity) population of sites, n=6, read-out: Ki SEM, 3H-FNZ binding): 1.2 nM
- Ki ([2]; cerebral cortex, second population of sites, n=6, read-out: Ki SEM, 3H-FNZ binding): 15.5 nM
- Scatchard analysis of 3H-FNZ saturation curves ([2]; cerebral cortical membranes, data not shown): competitive ligand for the BDZ-R
- Ki ([2]; hippocampus, n=2, read-out: Ki SEM, 3H-FNZ binding): 9.6 ± 0.6 nM
- Ki [2, 11]: 220 ± 1 nM
- affinity in spinal cord vs highest value in cerebral cortex ([2]; ratio): 10 times lower
- potency for displacement of 3H-FNZ, type II BDZ-R regions vs cerebellum ([2]; ratio): 3-4 times lower
- Ki ([2]; spinal cord, n=3, read-out: Ki SEM, 3H-FNZ binding): 12.7 ± 0.5 nM
- Ki ([2]; striatum, n=3, read-out: Ki SEM, 3H-FNZ binding): 9.8 ± 1.6 nM
- displacement of 3H-AMPA binding (AMPA-glutamate receptors): does not displace
- displacement of [3H]-muscimol binding (GABAA receptors): does not displace
- displacement of 3H-8-OH-DPAT binding (serotonin 1A receptors): does not displace
- displacement of 3H-QNB binding [4]: does not displace
- percentage of entries in the open arms (mice [5]): increasing both the percentage of entries in the open arms
- time spent in the open arms (mice [5]): increasing both the percentage of entries in the open arms and the time spent in these arms

Structure (SMILES): O=c1cc(-c2ccc([N+](=O)[O-])cc2)oc2ccc(Br)cc12 [Compound (V), 6-bromo-4'-nitroflavone]
- Ki [2, 11]: 220 nM

Structure (SMILES): CN1C(=O)CN=C(c2ccccc2)c2cc(Cl)ccc21 [Diazepam, reference compound]
- % of convulsing mice (mice [6]; DZ 0.3 mg/kg, n=6, p<0.001 (VEH + PTZ 96)): 33.3%
- % of convulsing mice (mice [6]; DZ 1.0 mg/kg, n=12, p<0.001): 42%
- % of convulsing mice (mice [6]; DZ 3.0 mg/kg, n=9, p<0.001): 0%
- anticonvulsant activity vs PTZ (mice [6]; mice, 0.3-3 mg/kg, p<0.001, PTZ 200 mg/kg): showed anticonvulsant activity
- head dips (mice [7]): 1.2±0.5
- minimal effective dose (mice [8]): 0.03 mg/kg
- myorelaxant effect (mice [9]; 1 mg/kg): marked myorelaxant effect
- animals showing myorelaxant effect (mice [9]; DZ 1 mg/kg): 8 animals out of 10
- dose needed to increase open arm entries relative to DNF (mice [10]): 10-100 times higher
- percentage of open arm entries (mice [10]; 0.3 mg/kg, vehicle=22.9±2.0%, p<0.05): 35.0±4.5%
- Ki ([3]; all the brain regions studied, read-out: Ki, [3H]-FNZ binding): ~7 nM
